# Experimental data taken from patent US7300946B2, “N-(substituted arylmethyl)-4-(disubstituted methyl) piperidines and pyridines” (Bayer CropScience AG, priority 2002, dated 2007).
# Tested on: tobacco budworm (Heliothis virescens [Fabricius])
# Assay: surface-treated diet test against the tobacco budworm
# Format: in vivo
# Details: tobacco budworm second instar larvae, 0.25 millimoles of candidate insecticide on the surface of the diet, five-day exposure; for Percent Mortality: compared to total number of insects infested; for Percent Growth Inhibition: inhibition of insect weight relative to untreated controls
# Method in brief: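 Wheat germ artificial diet surface-treated with 40 µL of 50 mM DMSO stock diluted 1:7 in 1:1 water/acetone (0.25 millimolar on diet), or sub-multiples for rate tests. One second-instar larva per well, 25° C, 60% RH, 5 days; percent weight inhibition vs DMSO controls and percent mortality.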
Structure (SMILES),Percent Mortality [%],Percent Growth Inhibition [%],Percent Mortality (surface-treated diet) [%],Percent Growth Inhibition (surface-treated diet) [%]
COC(=O)C(NC(=O)OC(c1ccc(C(F)(F)F)cc1)C1CCN(Cc2ccc(Oc3ccccn3)cc2)CC1)C(C)C (stereo not shown) [Compound 784],100,100,–,–
CCON=Cc1ccc(CN2CCC(C(OC(=O)Nc3ccc(OC)cc3)c3ccc(C(F)(F)F)cc3)CC2)cc1 (stereo not shown) [Compound 209],–,–,100,100
O=C(Nc1ccc(I)cc1)OC(c1ccc(C(F)(F)F)cc1)C1CCN(Cc2ccc(Oc3ccccn3)cc2)CC1 (stereo not shown) [Compound 677],–,–,100,100
CC(C)OC(=O)Nc1ccc(CN2CCC(=C(c3ccc(F)cc3)c3ccc(F)cc3)CC2)cc1 [Compound 794],83,100,–,–
C#CCON=Cc1ccc(CN2CCC(C(OC(=O)Nc3cc(F)cc(F)c3)c3ccc(C(F)(F)F)cc3)CC2)cc1 (stereo not shown) [Compound 540],–,–,100,100
O=C(Nc1ccc(Cl)cc1)OC(c1ccc(C(F)(F)F)cc1)C1CC[N+]([O-])(Cc2ccc(Oc3ccc(Cl)nn3)cc2)CC1 (stereo not shown) [Compound 767],100,100,–,–
CS(=O)(=O)Nc1ccc(CN2CCC(=C(c3ccc(C(F)(F)F)cc3)c3ccc(C(F)(F)F)cc3)CC2)cc1 [Compound 805],33,100,–,–
Cn1nnc(-c2ccc(COC(c3ccc(OC(F)(F)F)cc3)C3CCN(Cc4ccc(-c5nnn(C)n5)cc4)CC3)cc2)n1 (stereo not shown) [Compound 306],–,–,33,59
CS(=O)(=O)Oc1ccc(CN2CCC(=C(c3ccc(C(F)(F)F)cc3)c3ccc(C(F)(F)F)cc3)CC2)cc1 [Compound 803],100,100,–,–
Cn1nnc(-c2ccc(CN3CCC(C(Oc4ccc(Cl)cn4)c4ccc(C(F)(F)F)cc4)CC3)cc2)n1 (stereo not shown) [Compound 435],–,–,100,100
CCn1nnc(-c2ccc(CN3CCC(C(OC(=O)Nc4cc(F)cc(F)c4)c4ccc(OC)c(OC)c4)CC3)cc2)n1 (stereo not shown) [Compound 609],–,–,33,100
COc1ccc(OC(=O)NC(c2ccc(OC(F)(F)F)cc2)C2CCN(Cc3ccc(-c4nnn(C)n4)cc3)CC2)cc1 (stereo not shown) [Compound 356],–,–,100,100
Fc1ccc(C(=C2CCN(Cc3ccccc3)CC2)c2ccc(C(F)(F)F)cc2)cc1 [Compound 31],–,–,17,99
O=C(Nc1ccc(Cl)cc1)OC(c1cc(Cl)cc(Cl)c1)C1CCN(Cc2ccc(Oc3ncccn3)cc2)CC1 (stereo not shown) [Compound 726],100,100,–,–
O=C(Nc1cc(F)cc(F)c1)OC(c1ccc(C(F)(F)F)cc1)C1CC[N+]([O-])(Cc2ccc(Oc3ccc(Cl)nn3)cc2)CC1 (stereo not shown) [Compound 768],100,100,–,–
"O=C(Nc1cc(F)cc(F)c1)OC(C1=CCN(Cc2ccc(Oc3ncccn3)cc2)CC1)c1ccc(C(F)(F)F)cc1 (stereo not shown) [Compound 786, N-(3,5-difluorophenyl)({1-[(4-pyrimidin-2-yloxyphenyl)methyl](4-1,2,5,6-tetrahydropyridyl)}[4-(trifluoromethyl)phenyl]methoxy)carboxamide]",100,100,–,–
O=C(Nc1ccc(F)cc1F)OC(c1ccc(C(F)(F)F)cc1)C1CCN(Cc2ccc(Oc3ncccn3)cc2)CC1 (stereo not shown) [Compound 730],100,100,–,–
Cn1nnc(-c2ccc(CN3CCC(C(NC(=O)Nc4ccc([N+](=O)[O-])cc4)c4ccc(OC(F)(F)F)cc4)CC3)cc2)n1 (stereo not shown) [Compound 346],–,–,100,100

Structure (SMILES),Percent Mortality [%],Percent Growth Inhibition [%],Percent Mortality (surface-treated diet) [%],Percent Growth Inhibition (surface-treated diet) [%]
Cn1nnc(-c2ccc(C[N+]3([O-])CCC(C(OC(=O)Nc4ccc(Cl)cc4)c4ccc(OC(F)(F)F)cc4)CC3)cc2)n1 (stereo not shown) [Compound 399],–,–,100,100
CCn1nnc(-c2ccc(CN3CCC(C(OC(=O)Nc4ccc(F)cc4)c4ccc(OC(F)(F)F)cc4)CC3)cc2)n1 (stereo not shown) [Compound 277],–,–,100,100
COc1ccc(CN2CCC(C(OC(=O)Nc3ccc(F)cc3)c3ccc(OC(F)(F)F)cc3)CC2)cc1 (stereo not shown) [Compound 468],–,–,33,100
FC(F)(F)c1ccc(C(=C2CCN(Cc3ccc(Oc4cnccn4)cc3)CC2)c2ccc(C(F)(F)F)cc2)cc1 [Compound 825],83,100,–,–
CC(C)OC(=O)Nc1ccc(C[N+]2([O-])CCC(=C(c3ccc(F)cc3)c3ccc(F)cc3)CC2)cc1 (stereo not shown) [Compound 832],83,100,–,–
O=C(Nc1cc(F)cc(F)c1)OC(c1ccc(F)cc1)C1CCN(Cc2ccc(Oc3ncccn3)cc2)CC1 (stereo not shown) [Compound 717],100,100,–,–
O=C(Nc1cccc(C(F)(F)F)c1)OC(c1ccc(C(F)(F)F)cc1)C1CCN(Cc2ccc(Oc3ccccn3)cc2)CC1 (stereo not shown) [Compound 244],–,–,100,100
O=C(Nc1cc(F)cc(F)c1)OC(c1cc(Cl)cc(Cl)c1)C1CCN(Cc2ccc(Oc3ncccn3)cc2)CC1 (stereo not shown) [Compound 728],100,100,–,–
CC=CCOC(=O)Nc1ccc(CN2CCC(=C(c3ccc(C(F)(F)F)cc3)c3ccc(C(F)(F)F)cc3)CC2)cc1 [Compound 799],0,83,–,–
O=C(Nc1cc(F)cc(F)c1)OC(c1ccc(C(F)(F)F)cc1)C1CC[N+]([O-])(Cc2ccc(Oc3cc(C(F)(F)F)ccn3)cc2)CC1 (stereo not shown) [Compound 760],100,100,–,–
"CCOC(=O)Nc1ccc(CN2CCC(=C(c3ccc(C(F)(F)F)cc3)c3ccc(C(F)(F)F)cc3)CC2)cc1 [Compound 55, N-{4-[(4-{bis[4-(trifluoromethyl)phenyl]methylene}piperidyl)methyl]phenyl}ethoxycarboxamide]",–,–,100,100
COc1ccc(CN2CCC(C(OC(=O)Nc3cc(F)cc(F)c3)c3ccc(OC(F)(F)F)cc3)CC2)cc1 (stereo not shown) [Compound 469],–,–,17,100
[O-][N+]1(Cc2ccc(Oc3ncccn3)cc2)CCC(=C(c2ccc(C(F)(F)F)cc2)c2ccc(Cl)c(F)c2)CC1 (stereo not shown) [Compound 852],100,100,–,–
O=C(Nc1cc(F)cc(F)c1)OC(c1ccc(C(F)(F)F)cc1)C1CCN(Cc2ccc(OCc3ccccc3)cc2)CC1 (stereo not shown) [Compound 549],–,–,0,98
CCn1nnc(-c2ccc(CN3CCC(=C(c4ccc(C(F)(F)F)cc4)c4ccc(C(F)(F)F)cc4)CC3)cc2)n1 [Compound 82],–,–,100,100
Cn1nnc(-c2ccc(CN3CCC(C(NCc4ccc(OC(F)(F)F)cc4)c4ccc(OC(F)(F)F)cc4)CC3)cc2)n1 (stereo not shown) [Compound 319],–,–,100,100
O=C(Nc1cc(F)cc(F)c1)OC(c1ccc(C(F)(F)F)cc1)C1CC[N+]([O-])(Cc2ccc(Oc3c(F)cccc3F)cc2)CC1 (stereo not shown) [Compound 751],100,100,–,–
